The values below are quoted from earlier work in patent US9775839B2, “2-pyrazine carboxamides as spleen tyrosine kinase inhibitors” (Merck Sharp & Dohme Corp., priority 2014, dated 2017).

SMILES strings stand for the structures.

The conditions of data set [1]: allergic rhinitis, phase II clinical trial.
In data set [2] the test system is PGD2. To be noted: dosed intranasally, allergic rhinitis, phase I/II study.

As to `Oc1cccc(Nc2ncc(F)c(Nc3cccc(O)c3)n2)c1` [Example R112], in data set [1], the efficacy versus placebo result was “lack of efficacy”. Moreover, in data set [2], the “change in PGD2” value is “statistically significant decrease” and the clinical safety result is on record as “safe across a range of indicators”.
